Earlier results in patent US6500632B1, “Assay for screening inhibitors of C4 plant enzymes” (Australian Institute of Marine Science, priority 1998, dated 2002).

Assays:
[1] = tested on: C4 plants; settings: literature
[2] = target: T1, phosphoenolpyruvate carboxylase (Zea mays, UniProt P04711); settings: literature (Jenkins et al.; McFadden et al.)
T1 sequence (P04711 1-970): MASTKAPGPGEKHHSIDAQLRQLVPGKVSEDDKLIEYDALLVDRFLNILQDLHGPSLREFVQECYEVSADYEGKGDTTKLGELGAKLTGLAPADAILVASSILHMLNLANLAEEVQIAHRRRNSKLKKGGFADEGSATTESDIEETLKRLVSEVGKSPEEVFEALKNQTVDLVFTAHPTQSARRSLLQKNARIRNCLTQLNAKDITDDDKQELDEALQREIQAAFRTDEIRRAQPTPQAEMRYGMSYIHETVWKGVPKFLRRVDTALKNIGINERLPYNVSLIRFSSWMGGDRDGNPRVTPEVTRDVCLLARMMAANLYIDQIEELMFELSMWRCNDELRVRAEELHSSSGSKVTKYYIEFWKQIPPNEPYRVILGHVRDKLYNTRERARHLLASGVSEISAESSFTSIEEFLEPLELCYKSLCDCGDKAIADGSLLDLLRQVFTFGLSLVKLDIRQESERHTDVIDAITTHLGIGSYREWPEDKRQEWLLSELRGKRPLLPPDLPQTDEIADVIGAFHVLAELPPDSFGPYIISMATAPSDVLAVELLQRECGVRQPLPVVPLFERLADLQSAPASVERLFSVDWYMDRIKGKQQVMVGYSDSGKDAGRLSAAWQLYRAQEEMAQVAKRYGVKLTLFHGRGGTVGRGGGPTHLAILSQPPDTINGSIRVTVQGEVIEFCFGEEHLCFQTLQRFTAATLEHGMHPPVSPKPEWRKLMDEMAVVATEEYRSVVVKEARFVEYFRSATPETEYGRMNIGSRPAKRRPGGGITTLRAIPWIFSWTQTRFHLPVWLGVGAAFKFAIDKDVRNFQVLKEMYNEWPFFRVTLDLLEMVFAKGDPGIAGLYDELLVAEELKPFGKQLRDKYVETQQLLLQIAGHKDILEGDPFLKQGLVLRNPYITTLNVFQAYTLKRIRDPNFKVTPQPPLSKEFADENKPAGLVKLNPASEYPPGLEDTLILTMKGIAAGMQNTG

3,3-dichloro-2(dihydroxy-phosphinoylmethyl)propenoate
effect on the growth of C4 plants [1]: no effect | inhibition of a C4 enzyme (phosphoenolpyruvate carboxylase) [2]: specifically inhibited
